Data as given in ChEMBL document CHEMBL5523717, “Pyrrole-containing hybrids as potential anticancer agents: An insight into current developments and structure-activity relationships” (Eur J Med Chem, 2024).

Key:
[1] = target: Poly [ADP-ribose] polymerase 1 (Homo sapiens, UniProt P09874); assay: Inhibition of PARP-1 (unknown origin)
[2] = system: MCF7; assay: Cytotoxicity against human MCF7 cells assessed as reduction in cell viability incubated for 96 hrs by MTT assay; type: functional
[3] = system: MDA-MB-436; assay: Cytotoxicity against human MDA-MB-436 cells assessed as reduction in cell viability incubated for 96 hrs by MTT assay; type: functional
[4] = target: Poly [ADP-ribose] polymerase 2 (Homo sapiens, UniProt Q9UGN5); assay: Inhibition of PARP-2 (unknown origin)
[5] = Cytotoxicity against human HFL1 cells assessed as cell growth inhibition incubated for 24 hrs by MTT assay; type: toxicity, cell-based
[6] = system: HCT-15; assay: Growth inhibition of human HCT-15 cells incubated for 72 hrs by SRB assay; type: functional
[7] = target: T1, Hepatocyte growth factor receptor (Homo sapiens, UniProt P08581); assay: Inhibition of human c-Met
[8] = system: MKN-45; assay: Antiproliferative activity against human MKN-45 cells assessed as reduction in cell growth incubated for 72 hrs by CCK-8 assay; type: functional, cell-based; conditions: MKN-45, 72 h
[9] = target: Vascular endothelial growth factor receptor 2 (Homo sapiens, UniProt P35968); assay: Inhibition of VEGFR-2 (unknown origin) by ELISA analysis
[10] = system: A549; assay: Antiproliferative activity against human A549 cells transfected with sh-EZH2 vector assessed as reduction in cell growth incubated for 48 hrs by MTT assay; type: functional, cell-based; conditions: A549, 48 h
[11] = system: K562; assay: Antiproliferative activity against human K562 cells assessed as reduction in cell growth incubated for 48 hrs by MTT assay; type: functional, cell-based; conditions: K562, 48 h
[12] = system: A549; assay: Antiproliferative activity against human A549 cells transfected with sh-empty vector assessed as reduction in cell growth incubated for 48 hrs by MTT assay; type: functional, cell-based; conditions: A549, 48 h
[13] = system: MCF-12A; assay: Cytotoxicity against human MCF-12A cells assessed as reduction in cell viability incubated for 24 hrs by MTT assay; type: functional, cell-based
[14] = system: A549; assay: Cytotoxicity against human A549 cells assessed as reduction in cell growth incubated for 24 hrs by MTT assay; type: functional, cell-based; conditions: A549, 24 h
[15] = system: MCF7; assay: Cytotoxicity against human MCF7 cells assessed as reduction in cell growth incubated for 24 hrs by MTT assay; type: functional, cell-based; conditions: MCF7, 24 h
[16] = target: Lysine-specific histone demethylase 1A (Homo sapiens, UniProt O60341); assay: Inhibition of LSD1 (unknown origin)
[17] = system: HUVEC; assay: Antiproliferative activity against VEGF-stimulated HUVEC assessed as inhibition of cell growth incubated for 3 days by MTT assay; type: functional, cell-based; conditions: Homo sapiens, 72 h
[18] = system: U-251; assay: Anticancer activity against human U-251 cells assessed as reduction in cell growth; type: functional, cell-based
[19] = system: A549; assay: Anticancer activity against human A549 cells assessed as inhibition of cell growth; type: functional, cell-based
[20] = target: T2, Mushroom tyrosinase (Agaricus bisporus, UniProt O42713+Q00024+C7FF04+C7FF05); assay: Inhibition of mushroom Tyrosinase; type: protein assay
[21] = target: Tyrosinase (Homo sapiens, UniProt P14679); assay: Inhibition of human tyrosinase
[22] = Cytotoxicity against mouse NIH3T3 cells assessed as reduction in cell viability incubated for 24 hrs by MTT assay; type: toxicity, cell-based
[23] = system: T47D; assay: Cytotoxicity against human T47D cells assessed as reduction in cell viability by MTT assay; type: functional, cell-based
[24] = target: Kinesin-like protein KIF11 (Homo sapiens, UniProt P52732); assay: Inhibition of KSP/Eg5 (unknown origin)
[25] = target: DNA topoisomerase 1 (Homo sapiens, UniProt P11387); assay: Inhibition of DNA topoisomerase I (unknown origin)
[26] = system: MCF7; assay: Cytotoxicity against human MCF7 cells assessed as reduction in cell growth incubated for 72 hrs by MTT assay; type: functional, cell-based; conditions: MCF7, 72 h
[27] = system: A549; assay: Cytotoxicity against human A549 cells assessed as reduction in cell growth incubated for 72 hrs by MTT assay; type: functional, cell-based; conditions: A549, 72 h
[28] = system: HepG2; assay: Cytotoxicity against human HepG2 cells assessed as reduction in cell growth incubated for 72 hrs by MTT assay; type: functional, cell-based; conditions: HepG2, 72 h
[29] = target: T1, Hepatocyte growth factor receptor; assay: Inhibition of c-Met (unknown origin) by mobility shift assay
[30] = system: MDA-MB-231; assay: Cytotoxicity against human MDA-MB-231 cells assessed as reduction in cell viability by MTT assay; type: functional, cell-based
[31] = system: K562; assay: Antiproliferative activity against human K562 cells assessed as reduction in cell growth incubated for 48 hrs by WST-8 assay; type: functional, cell-based; conditions: K562, 48 h
[32] = system: SUNE1; assay: Anticancer activity against human SUNE1 cells assessed as reduction in cell growth; type: toxicity, cell-based
[33] = system: CNE-2; assay: Anticancer activity against human CNE-2 cells assessed as reduction in cell growth; type: functional, cell-based
[34] = target: T2, Mushroom tyrosinase; assay: Inhibition of mushroom tyrosinase using L-DOPA as substrate preincubated for 10 mins followed by substrate addition and measured after 15 mins by spectrophotometric method; type: protein assay
[35] = system: MCF7; assay: Cytotoxicity against human MCF7 cells assessed as reduction in cell growth by MTT assay; type: functional, cell-based
[36] = system: HT-29; assay: Cytotoxicity against human HT-29 cells assessed as reduction in cell growth by MTT assay; type: functional, cell-based
[37] = system: A2780; assay: Cytotoxicity against human A2780 cells assessed as reduction in cell growth by MTT assay; type: functional, cell-based
[38] = system: DU-145; assay: Cytotoxicity against human DU-145 cells assessed as reduction in cell growth by MTT assay; type: functional, cell-based
[39] = system: A-431; assay: Cytotoxicity against human A-431 cells assessed as reduction in cell growth by MTT assay; type: functional, cell-based

Vascular endothelial growth factor receptor 2, sequence (P35968 whole entry): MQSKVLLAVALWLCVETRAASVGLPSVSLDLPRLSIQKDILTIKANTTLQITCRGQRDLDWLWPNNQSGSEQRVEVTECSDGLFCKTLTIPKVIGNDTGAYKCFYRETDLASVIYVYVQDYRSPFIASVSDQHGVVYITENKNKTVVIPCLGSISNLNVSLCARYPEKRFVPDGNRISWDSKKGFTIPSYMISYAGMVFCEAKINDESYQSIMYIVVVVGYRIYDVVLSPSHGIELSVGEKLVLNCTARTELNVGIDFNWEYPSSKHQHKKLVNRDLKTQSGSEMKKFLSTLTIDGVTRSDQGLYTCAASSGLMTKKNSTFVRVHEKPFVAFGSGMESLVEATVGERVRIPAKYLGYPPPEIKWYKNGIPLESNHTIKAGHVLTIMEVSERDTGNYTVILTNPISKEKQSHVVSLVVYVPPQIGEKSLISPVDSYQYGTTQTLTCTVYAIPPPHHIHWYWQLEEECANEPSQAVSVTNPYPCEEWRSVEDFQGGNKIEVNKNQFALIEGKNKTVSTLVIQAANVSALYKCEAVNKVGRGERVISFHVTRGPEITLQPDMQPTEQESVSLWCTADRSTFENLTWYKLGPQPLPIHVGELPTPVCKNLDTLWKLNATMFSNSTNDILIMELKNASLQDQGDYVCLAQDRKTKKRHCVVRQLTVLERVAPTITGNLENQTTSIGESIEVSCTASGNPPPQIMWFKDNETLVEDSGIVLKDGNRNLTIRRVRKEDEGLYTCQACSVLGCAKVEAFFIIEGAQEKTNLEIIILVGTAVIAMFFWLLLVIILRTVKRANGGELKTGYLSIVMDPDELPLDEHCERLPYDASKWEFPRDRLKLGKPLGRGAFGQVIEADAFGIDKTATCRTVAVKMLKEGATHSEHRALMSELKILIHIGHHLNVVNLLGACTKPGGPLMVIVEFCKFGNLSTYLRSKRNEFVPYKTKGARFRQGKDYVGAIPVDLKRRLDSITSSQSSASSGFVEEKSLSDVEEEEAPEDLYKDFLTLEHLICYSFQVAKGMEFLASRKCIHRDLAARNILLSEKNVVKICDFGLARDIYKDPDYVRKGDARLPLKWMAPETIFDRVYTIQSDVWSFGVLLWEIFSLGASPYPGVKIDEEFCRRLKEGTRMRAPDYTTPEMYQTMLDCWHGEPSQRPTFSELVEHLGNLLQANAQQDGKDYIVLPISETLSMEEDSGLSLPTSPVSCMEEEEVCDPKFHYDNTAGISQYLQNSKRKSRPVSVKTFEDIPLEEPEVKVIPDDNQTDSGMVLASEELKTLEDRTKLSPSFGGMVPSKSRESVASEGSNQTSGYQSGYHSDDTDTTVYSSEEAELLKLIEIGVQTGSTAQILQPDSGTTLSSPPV
Kinesin-like protein KIF11, sequence (P52732 whole entry): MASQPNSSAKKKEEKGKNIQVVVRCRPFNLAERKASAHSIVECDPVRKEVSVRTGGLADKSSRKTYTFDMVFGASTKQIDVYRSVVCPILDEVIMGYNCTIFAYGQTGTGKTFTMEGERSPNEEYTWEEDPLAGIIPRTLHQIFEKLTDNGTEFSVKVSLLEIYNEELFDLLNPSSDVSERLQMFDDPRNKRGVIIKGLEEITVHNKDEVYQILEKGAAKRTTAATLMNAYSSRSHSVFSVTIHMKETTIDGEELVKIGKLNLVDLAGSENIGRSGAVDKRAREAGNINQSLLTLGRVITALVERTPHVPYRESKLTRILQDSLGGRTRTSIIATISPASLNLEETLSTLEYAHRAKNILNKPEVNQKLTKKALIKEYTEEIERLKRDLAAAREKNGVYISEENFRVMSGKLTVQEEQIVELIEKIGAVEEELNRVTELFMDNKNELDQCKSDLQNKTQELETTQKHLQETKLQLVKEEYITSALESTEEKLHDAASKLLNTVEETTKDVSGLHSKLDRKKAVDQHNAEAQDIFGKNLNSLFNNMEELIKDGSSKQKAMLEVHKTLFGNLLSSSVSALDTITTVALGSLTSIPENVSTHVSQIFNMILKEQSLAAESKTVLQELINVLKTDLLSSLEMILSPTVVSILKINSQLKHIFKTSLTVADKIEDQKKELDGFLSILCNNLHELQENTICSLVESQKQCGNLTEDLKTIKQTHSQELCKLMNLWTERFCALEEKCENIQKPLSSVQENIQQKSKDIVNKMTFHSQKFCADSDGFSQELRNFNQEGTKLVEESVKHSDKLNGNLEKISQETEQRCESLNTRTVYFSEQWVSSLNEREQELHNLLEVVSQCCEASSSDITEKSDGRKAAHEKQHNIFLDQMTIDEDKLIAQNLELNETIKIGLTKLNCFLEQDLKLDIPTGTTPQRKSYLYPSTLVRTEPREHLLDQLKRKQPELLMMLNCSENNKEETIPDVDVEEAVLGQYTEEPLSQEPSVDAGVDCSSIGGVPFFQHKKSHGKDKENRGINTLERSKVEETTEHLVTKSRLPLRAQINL
T1 sequence (P08581 whole entry): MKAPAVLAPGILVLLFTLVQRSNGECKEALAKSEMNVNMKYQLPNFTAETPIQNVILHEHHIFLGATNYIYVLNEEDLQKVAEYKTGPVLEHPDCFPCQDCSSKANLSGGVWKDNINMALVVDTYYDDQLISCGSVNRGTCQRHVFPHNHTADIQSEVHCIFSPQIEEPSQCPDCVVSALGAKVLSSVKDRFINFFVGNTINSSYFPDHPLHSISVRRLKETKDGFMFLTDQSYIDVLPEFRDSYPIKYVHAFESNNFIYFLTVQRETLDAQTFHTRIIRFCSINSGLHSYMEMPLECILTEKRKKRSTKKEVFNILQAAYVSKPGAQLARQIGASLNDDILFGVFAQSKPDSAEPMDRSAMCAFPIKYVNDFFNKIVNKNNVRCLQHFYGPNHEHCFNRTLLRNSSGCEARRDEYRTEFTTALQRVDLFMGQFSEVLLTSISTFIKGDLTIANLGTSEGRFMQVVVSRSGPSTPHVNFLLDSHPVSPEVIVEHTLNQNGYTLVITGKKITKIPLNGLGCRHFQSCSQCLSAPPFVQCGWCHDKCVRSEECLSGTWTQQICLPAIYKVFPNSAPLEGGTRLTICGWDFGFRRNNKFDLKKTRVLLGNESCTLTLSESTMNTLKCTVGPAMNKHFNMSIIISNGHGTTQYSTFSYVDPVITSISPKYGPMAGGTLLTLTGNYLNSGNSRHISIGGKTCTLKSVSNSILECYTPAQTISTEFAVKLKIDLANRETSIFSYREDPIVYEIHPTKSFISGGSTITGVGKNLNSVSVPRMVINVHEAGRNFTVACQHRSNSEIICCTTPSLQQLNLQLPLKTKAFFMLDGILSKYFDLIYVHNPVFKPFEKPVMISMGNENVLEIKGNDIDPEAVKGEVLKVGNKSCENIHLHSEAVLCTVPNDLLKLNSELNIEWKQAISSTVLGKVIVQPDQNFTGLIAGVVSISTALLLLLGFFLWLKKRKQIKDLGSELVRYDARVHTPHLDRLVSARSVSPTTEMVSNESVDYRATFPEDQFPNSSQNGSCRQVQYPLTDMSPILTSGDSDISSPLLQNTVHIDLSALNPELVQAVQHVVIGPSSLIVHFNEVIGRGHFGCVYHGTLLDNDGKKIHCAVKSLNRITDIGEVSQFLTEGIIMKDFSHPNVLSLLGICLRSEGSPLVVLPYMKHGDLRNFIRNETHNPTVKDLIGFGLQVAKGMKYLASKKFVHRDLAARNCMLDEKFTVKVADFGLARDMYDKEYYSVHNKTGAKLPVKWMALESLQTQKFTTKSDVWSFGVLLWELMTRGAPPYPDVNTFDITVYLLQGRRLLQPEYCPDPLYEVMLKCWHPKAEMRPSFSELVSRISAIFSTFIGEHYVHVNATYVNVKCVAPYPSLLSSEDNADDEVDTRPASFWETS
DNA topoisomerase 1, sequence (P11387 whole entry): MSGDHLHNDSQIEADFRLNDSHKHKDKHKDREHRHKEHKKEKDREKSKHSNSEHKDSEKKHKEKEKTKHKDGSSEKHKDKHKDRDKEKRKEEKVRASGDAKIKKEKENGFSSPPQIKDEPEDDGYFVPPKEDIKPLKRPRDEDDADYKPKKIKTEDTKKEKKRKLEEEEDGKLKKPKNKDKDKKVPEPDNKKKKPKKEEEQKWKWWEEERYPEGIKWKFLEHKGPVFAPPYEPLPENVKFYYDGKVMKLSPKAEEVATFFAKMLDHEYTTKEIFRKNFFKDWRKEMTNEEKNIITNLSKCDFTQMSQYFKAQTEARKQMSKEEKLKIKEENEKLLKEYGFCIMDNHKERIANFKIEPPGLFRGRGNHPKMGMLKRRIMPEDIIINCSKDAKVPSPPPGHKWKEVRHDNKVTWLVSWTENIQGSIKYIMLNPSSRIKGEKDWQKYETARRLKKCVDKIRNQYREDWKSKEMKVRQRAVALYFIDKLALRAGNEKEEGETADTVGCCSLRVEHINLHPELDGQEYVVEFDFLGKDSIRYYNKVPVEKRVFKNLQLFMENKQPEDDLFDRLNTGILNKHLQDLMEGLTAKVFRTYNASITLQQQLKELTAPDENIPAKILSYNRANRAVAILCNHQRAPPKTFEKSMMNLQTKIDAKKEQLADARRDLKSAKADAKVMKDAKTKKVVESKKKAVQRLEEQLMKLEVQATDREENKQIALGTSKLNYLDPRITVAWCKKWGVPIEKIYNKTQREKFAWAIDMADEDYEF
Tyrosinase, sequence (P14679 whole entry): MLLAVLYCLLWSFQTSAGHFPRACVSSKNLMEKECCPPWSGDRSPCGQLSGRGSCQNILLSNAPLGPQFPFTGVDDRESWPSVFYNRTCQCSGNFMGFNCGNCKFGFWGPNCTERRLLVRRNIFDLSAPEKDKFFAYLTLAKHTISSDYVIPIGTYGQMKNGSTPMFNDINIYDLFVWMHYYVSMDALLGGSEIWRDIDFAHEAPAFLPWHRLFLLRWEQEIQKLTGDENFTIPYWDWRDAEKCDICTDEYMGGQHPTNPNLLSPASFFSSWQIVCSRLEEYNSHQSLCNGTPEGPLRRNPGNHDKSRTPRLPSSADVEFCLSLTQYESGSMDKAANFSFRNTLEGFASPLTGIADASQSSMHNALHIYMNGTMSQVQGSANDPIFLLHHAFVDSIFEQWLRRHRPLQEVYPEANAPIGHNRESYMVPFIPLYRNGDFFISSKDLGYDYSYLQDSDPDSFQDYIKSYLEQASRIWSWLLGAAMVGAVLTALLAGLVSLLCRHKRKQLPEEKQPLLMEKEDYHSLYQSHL

## CC(C)NCc1ccc(-c2[nH]c3cccc4c3c2C=NNC4=O)cc1
[1]
  IC50: 0.014 µM
[2]
  CC50: 22.3 µM
[3]
  CC50: 0.98 µM
[4]
  IC50: 0.00884 µM

## COc1ccc(OC)c(-c2nc(/C=C3/C(=O)N(Cc4ccccc4)c4ccc(Br)cc43)cc3c2[nH]c2ccccc23)c1
[5]
  IC50 at 24 h: 49.8 µM
[6]
  GI50: 0.89 µM

## CNC(=O)c1ccc(-c2ccc3ncc(S(=O)(=O)n4ccc5ccccc54)n3c2)cc1F
[7]
  IC50: 0.0128 µM
[8]
  IC50: 0.0099 µM

## C=c1[nH]c2ccc(Br)cc2/c1=C/c1cc2c([nH]1)CN(CCN(CC)CC)C2=O
[9]
  IC50: 24.9 µM

## Cc1cc(NS(=O)(=O)c2ccc(N3C(=O)/C(=C/c4c[nH]c5ccccc45)N=C3c3ccc(Cl)cc3)cc2)no1
[9]
  IC50: 1.61 µM

## Cc1cc(C)c(CNC(=O)c2c(C)cn(Cc3ccc(CC(F)(F)F)cc3)c2C)c(=O)[nH]1
[10]
  IC50: 270 µM
[11]
  IC50: 58.7 µM
[12]
  IC50: 72.8 µM

## O=C(NNC(=S)Nc1ccc(Br)cc1)c1cc2c([nH]c3ccccc32)c(-c2cccc(O)c2)n1
[13]
  IC50: 30.2 µM
[14]
  IC50: 3.63 µM
[15]
  IC50: 3.59 µM

## CCOCc1cccc(NC(=O)c2cc3sccc3n2C)c1CCOc1ccc(OC[C@@H]2CCNC2)cc1
[16]
  IC50: 0.0078 µM

## CNC(=O)c1ccccc1Sc1ccc2c(/N=N/c3cc(C)[nH]c3C)n[nH]c2c1
[17]
  IC50: 44 µM

## Cc1c(OCC(O)CN2CCN(C)CC2)cn2ncnc(Oc3ccc(NC(=O)C4(C(=O)Nc5ccc(F)cc5)CC4)cc3F)c12 (configuration not stated)
[17]
  IC50: 5 µM

## CC(=O)n1cc(C(=O)OC(C)C)c(C#Cc2ccc(Cl)cc2)c1C(=O)OC(C)C
[18]
  IC50: 2.29 µM
[19]
  IC50: 3.49 µM

## NC(=S)N/N=C/c1ccc[nH]1
[20]
  IC50: 3.99 µM

## Cc1cc(NS(=O)(=O)c2ccc(N3C(=O)/C(=C/c4c[nH]c5ccccc45)N=C3c3ccccc3)cc2)no1
[9]
  IC50: 0.07 µM

## COc1cccc2c1c(C(=O)C(=O)Nc1cc[nH]n1)cn2Cc1ccc(F)cc1
[20]
  IC50: 372 µM

## O=C(N/N=C/c1ccc(O)cc1)c1cc2ccccc2[nH]1
[20]
  IC50: 0.07 µM
[21]
  IC50: 175 µM

## CSc1nnc(-c2cc3c([nH]c4ccccc43)c(-c3cccc(O)c3)n2)o1
[13]
  IC50: 38.2 µM
[14]
  IC50: 4.57 µM
[15]
  IC50: 6.41 µM

## CNC(=S)N/N=C/c1ccc[nH]1
[20]
  IC50: 344.83 µM

## Cc1c(C(=O)C(=O)Nc2ccncc2)cc(-c2ccccc2)n1-c1ccccc1
[22]
  IC50 at 24 h: > 100 µM
[23]
  IC50: 11.8 µM

## CCN1CCC(Oc2ccc(OCCc3ccccc3NC(=O)c3cc4sccc4n3C)cc2)CC1
[16]
  IC50: 0.451 µM

## Cc1ccc(NC(=S)NNC(=O)c2cc3c([nH]c4ccccc43)c(-c3cccc(O)c3)n2)cc1
[13]
  IC50: 16 µM
[24]
  IC50: 18.8 µM
[14]
  IC50: 2.57 µM
[15]
  IC50: 6.57 µM
[25]
  IC50: 28.1 µM

## Cc1c(C(=O)Nc2ccc(Oc3ncnc4[nH]ccc34)c(F)c2)nnn1-c1ccc(F)cc1
[26]
  IC50: 2.9 µM
[27]
  IC50: 4.79 µM
[28]
  IC50: 2.03 µM
[29]
  IC50: 0.79 µM

## Cc1c(C(=O)C(=O)Nc2ccncc2)cc(-c2ccccc2)n1-c1ccc(F)cc1
[22]
  IC50 at 24 h: > 100 µM
[30]
  IC50: 11.8 µM

## CCNC(=S)NNC(=O)c1cc2c([nH]c3ccccc32)c(-c2cccc(O)c2)n1
[13]
  IC50: 28.4 µM
[24]
  IC50: 32.3 µM
[14]
  IC50: 4.56 µM
[15]
  IC50: 7.2 µM
[25]
  IC50: 28.3 µM

## S=C(N/N=C/c1ccc[nH]1)Nc1ccccc1
[20]
  IC50: 94.23 µM

## COCc1cccc(NC(=O)c2cc3sccc3n2C)c1CCOc1ccc(OC2CCNCC2)cc1
[16]
  IC50: 0.075 µM

## O=C(CN1CCCCC1)Nc1cccc(-c2cc3ccccc3[nH]2)c1
[9]
  IC50: 1.14 µM

## COc1cccc2c1c(C(C)=O)cn2Cc1ccc(F)cc1
[20]
  IC50: 224 µM

## Cc1cc(C)c(CNC(=O)c2c(C)n(Cc3ccccc3)c3ccc(OCCN4CCCCC4)cc23)c(=O)[nH]1
[31]
  IC50: 52.6 µM

## O=C(N/N=C/c1ccc([N+](=O)[O-])n1Cc1cccc(F)c1)c1cccc(O)c1O
[32]
  IC50: 0.08 µM
[33]
  IC50: 4.43 µM

## C=Cc1ccccc1-c1ccn(C)c1C#N
[34]
  IC50: 0.97 µM

## O=C(NCc1ccccc1)C(CNC(=O)C1C(C(=O)O)[C@@H]2CC[C@H]1O2)Cc1ccc[nH]1 (some centres not stated)
[35]
  IC50: 0.017 µM
[36]
  IC50: 0.017 µM
[37]
  IC50: 0.017 µM
[38]
  IC50: 0.017 µM
[39]
  IC50: 0.017 µM
